# Experimental data: patent publication US20070012632A1, “Synergistic composition and method for inhibiting growth of microorganisms” (priority 2005, published 2007)
# Assays:
# Assay type in all cases: cell-based
# [1] = system: total bacteria in paper mill white water; assay: Total bacterial counts in white water, mill using mechanical pulp (Example 1); conditions: 50 minutes contact time; for Total bacterial counts: white water
# Protocol: The furnish used in this mill is composed of about 50% TMP, 25% bleached Kraft pulp, and 25% broke. White water was collected and total bacterial counts were determined in samples with and without the addition of DMH stabilized chlorine (1:1 molar ratio of DMH to “Cl2) and/or PAA, after 50 minutes of contact time.
# [2] = system: total bacteria in paper mill white water; assay: Total bacterial counts in white water, mill using chemical pulp (Example 2); conditions: 30 minutes contact time; for Total bacterial counts: white water
# Protocol: The furnish used on this paper machine is composed of about 60% bleached Kraft pulp, and 40% broke. White water was collected and total bacterial counts were determined in samples with and without the addition of DMH stabilized chlorine (1:1 molar ratio of DMH to “Cl2”), and/or PAA, after 30 minutes of contact time.
# [3] = system: total bacteria in paper mill white water; assay: Total bacterial counts in white water, very closed mill using chemical pulp (Example 3); parameters: Total bacterial counts: unit not given here; conditions: 30 minutes contact time; for Total bacterial counts: white water
# Protocol: The furnish used in this mill is composed of about 75% bleached Kraft pulp, and 25% broke. White water was collected and total bacterial counts were determined in samples with and without the addition of DMH stabilized chlorine (1:1 molar ratio of DMH to “Cl2”), and/or PAA, after 30 minutes of contact time.
smiles,measurement,setting,value
"CC(=O)OO [PAA, peracetic acid]",Total bacterial counts,[1]; PAA 25 ppm product,4 × 10^6
same,Total bacterial counts,[1]; PAA 50 ppm product,3 × 10^5
same,Total bacterial counts,[1]; PAA 100 ppm product,3 × 10^3
same,Concentration alone achieving >3-log reduction in bacterial counts,[1]; biocide alone,100 ppm
same,Total bacterial counts,[2]; PAA 2.5 ppm product,5.8 × 10^6
same,Total bacterial counts,[2]; PAA 5 ppm product,1.1 × 10^6
same,Total bacterial counts,[2]; PAA 10 ppm product,5 × 10^4
same,Concentration alone achieving >3-log reduction in bacterial counts,[2]; biocide alone,> 10 ppm
same,Total bacterial counts,[3]; PAA 50 ppm product,4.5 × 10^6
same,Total bacterial counts,[3]; PAA 75 ppm product,1.6 × 10^6
same,Total bacterial counts,[3]; PAA 100 ppm product,3 × 10^5
same,Total bacterial counts,[3]; PAA 150 ppm product,10^3
same,Total bacterial counts,[3]; PAA 200 ppm product,<10^2
same,Concentration alone achieving 2-log reduction in bacterial counts,[3]; biocide alone,150 ppm
